Reference: US5912230A, “Anti-fungal and anti-bacterial histatin-based peptides” (priority 1998, dated 1999)
Read-outs that look alike come from different tables or passages of the source. Where no end group is shown, it is not given here.

Tests used:
[1] = tested on: C. albicans blastoconidia; conditions: for C. albicans: % killing at 50 μM dose (scoring): highest response seen used in the scoring; for anti-fungal (fungicidal) activity, in words: C. albicans blastoconidia; for C. albicans: LD50 (μM) for % killing: blastoconidia, 1 h at 37° C., pH 7.4
From the text: C. albicans is a dimorphic yeast. It can exist in a yeast or blastoconidial form, which upon germination develops into the hyphal or germinated form. While the germinated form is considered to be more invasive, most of the C. albicans isolates harvested from the oral cavities of healthy individuals appear to be in the blastoconidial form. (Arendorf, T. M. et al. (1980), Arch. Oral Biol. 25:1-10; Gow, N.A.R. et al. (1987), Criti. Rev. Microbiol. 15:73-78; Odds, F. C. (1988), Candida and Candidosis, 2nd ed., Bailliere Tindall, London, England). Anti-fungal activity of synthetic histatin 5, histatin-based peptide 113, peptides based on portions of the amino acid sequences of histatin-based peptide 113 and peptides derived from histatin-based peptide 113 with specified amino acid substitutions was measured in assays designed to test the effectiveness of the peptides against the blastoconidia form of Candida (Table 1). These assays, which measure killing of blastoconidia of C. albicans, are described in Xu et al., which is herein incorporated by reference. (Xu, T. et al. (1991), Infect. Immun. 59(8):2549-2554).
A well-described strain of C. albicans was used in the bioassay. This strain, ATCC 44505, was originally isolated from the human oral cavity. Cultures were stored at 4° C. on Sabouraud dextrose agar plates (Difco Laboratories, Detroit, Mich.) until use. Stationary phase growth cells were obtained following growth at 30° C. for 18 h on Sabouraud dextrose agar plates. Colonies were harvested and suspended in 10 mM potassium phosphate buffer (PPB), pH 7.4.
To initiate log phase growth, an aliquot of stock C. albicans was suspended in Sabouraud dextrose broth (Difco) and incubated at 30° C. in a shaking water bath. The growth phase was determined by taking aliquots of the culture at one hour intervals to monitor the optical density (O.D.) at 560 nm. […] Log phase cells were harvested and utilized in the blastoconidia killing assay in a manner identical to that described for stationary phase cells. A final concentration of 10^5 cells/ml (either stationary or log phase fungus) was used in all assays.
The standard suspension buffer utilized in the blastospore killing assay was 0.01M PPB, pH 7.4. An alternate suspension buffer, N-2-hydroxyethylpiperazine-N'-2-ethanesulfonic acids (HEPES; Sigma Chemical Co., St. Louis, Mo.), pH 7.4, can also be utilized.
a. For the killing of blastoconidia assay, 50 μl aliquots of cells (2×10^5 cells/ml) diluted in suspension buffer were allowed to attach to a polystyrene 96-well micro-titer plate (COSTAR, Cambridge, Mass.) for 15 min at room temperature, and then incubated with an equal volume of a histatin or histatin peptide in suspension buffer for 1 h at 37° C. Controls were carried out in the absence of the histatin or histatin peptide. After incubation, wells were washed three times by centrifugation at 1,000 xg for 5 min and covered with aliquots of molten Sabouraud dextrose broth (Difco) containing 2% agarose (Sigma) at 45° C. The plate was then incubated at 30° C. for 8 h. Under such conditions, live cells will divide and begin to form colonies, while dead cells will remain as single cells. To determine the percentage of blastoconidia killed, a total of 100 single cells and/or colonies were counted under a Nikon inverted microscope at 400× magnification and the extent of killing was calculated using the formula: [1-(number of colonies in treated sample)/(number of colonies in control)]×100%.
Data were obtained by calculating the mean and standard deviation from triplicate assays.

[2] = target: T1, Clostripain (Hathewaya histolytica, UniProt P09870); assay: clostripain assay (BAPNA hydrolysis); format: biochemical, Clostridium histolyticum
T1 construct: purchased Sigma Chemical Corp., St. Louis, Mo
Method: (§1) Clostripain from Clostridium histolyticum (Sigma Chemical Corp., St. Louis, Mo.) was dissolved in deionized water to a concentration of 1 mg/mL (300 units/mg) and activated with the addition of 10 mmol/L DTT. To measure its hydrolytic activity, clostripain (6 units) was added to […] Hepes buffer, pH 7.5, containing 80 gmol/L BAPNA (benzoyl-arginine-p-nitroanilide), together with 5.6 μmol/L of histatin peptide inhibitor. As controls, assays were performed in the absence of any histatin peptide inhibitor. The activity was monitored continuously at 405 nm using a Molecular Devices VMax microtitre plate reader. The activities were determined from the maximum rates of substrate hydrolysis. Assays were done in duplicate, and the means normalized to the controls.

[3] = target: T2, Clostripain (Hathewaya histolytica, UniProt P09870); assay: clostripain assay (BAPNA hydrolysis); format: biochemical, Clostridium histolyticum; remark: listed apart in the source
T2 construct: purchased Sigma Chemical Corp., St. Louis, Mo
T2 sequence (P09870 whole entry, looked up): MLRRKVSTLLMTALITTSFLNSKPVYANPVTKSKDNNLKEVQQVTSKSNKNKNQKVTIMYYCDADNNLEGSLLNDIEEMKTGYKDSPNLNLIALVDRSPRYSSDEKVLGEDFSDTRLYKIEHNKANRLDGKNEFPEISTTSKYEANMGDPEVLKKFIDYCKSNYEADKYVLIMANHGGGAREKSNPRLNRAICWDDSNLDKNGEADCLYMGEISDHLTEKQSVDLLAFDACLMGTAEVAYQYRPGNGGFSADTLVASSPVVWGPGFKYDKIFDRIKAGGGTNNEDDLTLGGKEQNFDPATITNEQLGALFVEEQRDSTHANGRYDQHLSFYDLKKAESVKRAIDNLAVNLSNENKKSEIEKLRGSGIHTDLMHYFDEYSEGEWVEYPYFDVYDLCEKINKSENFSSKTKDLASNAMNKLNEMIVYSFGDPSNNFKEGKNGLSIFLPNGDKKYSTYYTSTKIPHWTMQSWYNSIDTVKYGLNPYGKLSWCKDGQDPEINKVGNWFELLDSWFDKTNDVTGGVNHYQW
Method: as §1

[4] = read-out: Clostripain: IC50 (μM) for inhibition of Clostripain

Substance | C. albicans: % killing at 50 μM dose (scoring) [1] | anti-fungal (fungicidal) activity, in words [1] | IC50 [2] [µM] | clostripain inhibition, in words [2] | C. albicans: LD50 (μM) for % killing [1] [µM] | anti-fungal activity at pH 4.0, in words ([1]; pH 4.0) | IC50 [2, 4] [µM] | clostripain inhibition, in words [3]
AKRHHGYKR [peptide 120] | ++ (++20-50%) | C. albicans blastoconidia killing | > 50 | clostripain inhibition effects | – | – | – | –
AKRHHGYKRK [peptide 119] | ++ (++20-50%) | C. albicans blastoconidia killing | > 50 | clostripain inhibition effects | – | – | – | –
AKRHHGYKRKFH [peptide 113] | – | – | – | clostripain inhibition effects | 5.8 | essentially devoid of anti-fungal activity | 25 | –
AKRHHGYKRKF [peptide 118] | ++++ (++++80-100%) | C. albicans blastoconidia killing | 45 | clostripain inhibition effects | – | – | – | –
KRHHGYKRKF [peptide 129] | – | – | – | clostripain inhibition effects | 27 | – | 19 | –
His 11: histatin 11 (SEQ ID NO: 11), subpeptide of peptide 113 (KRHHGYKR) | + (+<20%) | – | – | – | – | – | – | clostripain inhibition effects
peptide 117: subpeptide of peptide 113 (SEQ ID NO: 19) (KRHHGYKRKFH) | ++++ (++++80-100%) | C. albicans blastoconidia killing | – | – | – | – | – | clostripain inhibition effects
